Test results from the NIST ThermoML archive (doi:10.1016/j.fluid.2014.06.018).
Numbers after ± are expanded uncertainties.

Conditions: 100 kPa, Liquid, capillary rise

## CCCCCC [hexane] + O
298.15 K
  interfacial tension: 50 ± 0.6 mN/m
302.15 K
  interfacial tension: 49.7 ± 0.6 mN/m
315.65 K
  interfacial tension: 48.5 ± 0.6 mN/m
322.15 K
  interfacial tension: 47.9 ± 0.6 mN/m
333.15 K
  interfacial tension: 47 ± 0.4 mN/m
343.15 K
  interfacial tension: 46.2 ± 0.4 mN/m

## CCCCCCCCC [nonane] + O
303.15 K
  interfacial tension: 50.9 ± 0.6 mN/m
313.15 K
  interfacial tension: 50 ± 0.6 mN/m
324.15 K
  interfacial tension: 49.2 ± 0.6 mN/m
333.65 K
  interfacial tension: 48.4 ± 0.4 mN/m
343.15 K
  interfacial tension: 47.6 ± 0.4 mN/m

## CCCCCCC [heptane] + O
298.15 K
  interfacial tension: 50.6 ± 0.6 mN/m
304.15 K
  interfacial tension: 50.1 ± 0.6 mN/m
314.15 K
  interfacial tension: 49.3 ± 0.6 mN/m
324.65 K
  interfacial tension: 48.4 ± 0.4 mN/m
335.65 K
  interfacial tension: 47.4 ± 0.4 mN/m

## CCCCCCCC [octane] + O
312.65 K
  interfacial tension: 50.5 ± 0.6 mN/m
323.65 K
  interfacial tension: 49.7 ± 0.6 mN/m
330.65 K
  interfacial tension: 48.8 ± 0.6 mN/m
333.15 K
  interfacial tension: 48 ± 0.4 mN/m
343.15 K
  interfacial tension: 47.1 ± 0.4 mN/m

## CCCCCCCO [heptan-1-ol] + O
302.15 K
  interfacial tension: 7.28 ± 0.08 mN/m
313.15 K
  interfacial tension: 7.47 ± 0.08 mN/m
323.15 K
  interfacial tension: 7.61 ± 0.08 mN/m
333.15 K
  interfacial tension: 7.64 ± 0.08 mN/m
343.15 K
  interfacial tension: 7.59 ± 0.08 mN/m

## CCCCCC(=O)O [hexanoic acid] + O
304.65 K
  interfacial tension: 5.57 ± 0.09 mN/m
313.65 K
  interfacial tension: 5.19 ± 0.08 mN/m
324.15 K
  interfacial tension: 4.62 ± 0.08 mN/m
333.15 K
  interfacial tension: 4.11 ± 0.09 mN/m
343.15 K
  interfacial tension: 3.48 ± 0.08 mN/m
